Laboratory results: ChEMBL document CHEMBL1201862, “PubChem BioAssay data set” (2004)
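Tested at 5 concentrations; 48 h exposure; 96-well plates; endpoints linearly interpolated, else capped at highest concentration. GI50 marks 50% less growth.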 The source made the active and inactive calls. Cut-off read from the data, not from the text of the source: active = GI50 up to about 1.1 µM and inactive = higher.

Legend:
Assay in all cases: DTP human tumour cell line panel, 48 h
DMS-114 = tested on: DMS-114
KM-20L2 = tested on: KM-20L2
HOP-18 = tested on: HOP-18
SNB-78 = tested on: SNB-78
XF498 = tested on: XF498
LXFL 529 = tested on: LXFL 529
M19-MEL = tested on: M19-MEL
RXF 631 = tested on: RXF 631
BT-549 = tested on: BT-549

With `N#CC(C#N)=Cc1cccc(Oc2ccccc2)c1` the GI50 (DMS-114) was 26.2 µM (inactive), the GI50 (KM-20L2) was 37.4 µM (inactive) and the GI50 (HOP-18) was 16.7 µM (inactive). The GI50 (SNB-78) was 29.2 µM (inactive), the GI50 (XF498) was 20.2 µM (inactive) and the GI50 (LXFL 529) was 18.5 µM (inactive). For the same compound, the GI50 (M19-MEL) was 27.5 µM (inactive).

`COC1=CC(=O)C2C(C1=O)[C@@H]1c3ccccc3OC[C@H]21` (some centres undefined) was tested, and the GI50 (DMS-114) was > 100 µM (inactive), the GI50 (KM-20L2) was > 100 µM (inactive) and the GI50 (HOP-18) was > 100 µM (inactive). For the same compound, the GI50 (SNB-78) was > 100 µM (inactive) and the GI50 (LXFL 529) was > 100 µM (inactive).

In the case of `CC(=O)OC1(C#N)CC2OC1C1NC21` (centres undefined), the GI50 (DMS-114) is reported as > 100 µM (inactive), the GI50 (KM-20L2) is reported as > 100 µM (inactive) and the GI50 (SNB-78) is reported as > 100 µM (inactive). For the same compound, the GI50 (XF498) was > 100 µM (inactive), the GI50 (LXFL 529) was > 100 µM (inactive) and the GI50 (RXF 631) was > 100 µM (inactive). For the same compound, the GI50 (M19-MEL) was > 100 µM (inactive).

With `N=C(N)NS(=O)(=O)c1ccc(NCc2c3ccccc3[n+]([O-])c3ccccc23)cc1` the GI50 (DMS-114) was 10.4 µM (inactive), the GI50 (KM-20L2) was 30.1 µM (inactive) and the GI50 (HOP-18) was 8.63 µM (inactive). For the same compound, the GI50 (SNB-78) was 31.6 µM (inactive), the GI50 (LXFL 529) was 17.1 µM (inactive) and the GI50 (M19-MEL) was 22.9 µM (inactive).

`N#CC(C(=N/O)/C(=N/O)C(C#N)c1ccc(Cl)cc1)c1ccc(Cl)cc1` (centres undefined) was tested, and the GI50 (DMS-114) was > 100 µM (inactive), the GI50 (KM-20L2) was > 100 µM (inactive) and the GI50 (HOP-18) was 43.6 µM (inactive). For the same compound, the GI50 (SNB-78) was 23.4 µM (inactive), the GI50 (XF498) was > 100 µM (inactive) and the GI50 (LXFL 529) was 30.4 µM (inactive). For the same compound, the GI50 (M19-MEL) was > 100 µM (inactive).

In the case of `CCc1ccccc1NC(=O)C1=C(C)NC(C)=C(C(=O)Nc2ccccc2CC)C1c1ccc2c(c1)OCO2`, the GI50 (DMS-114) is reported as 22.9 µM (inactive), the GI50 (KM-20L2) is reported as > 10 µM (inactive) and the GI50 (SNB-78) is reported as 34 µM (inactive). For the same compound, the GI50 (XF498) was 23 µM (inactive), the GI50 (LXFL 529) was 31.3 µM (inactive) and the GI50 (M19-MEL) was 40.9 µM (inactive).

`CC(C)NC(=O)O/N=C1\CCC2[C@@H]3CC=C4C[C@@H](OC(=O)NC(C)C)CC[C@]4(C)C3CC[C@]12C` (some centres undefined) was tested, and the GI50 (DMS-114) was 0.664 µM (active), the GI50 (KM-20L2) was 2.59 µM (inactive) and the GI50 (HOP-18) was 1.84 µM (inactive). For the same compound, the GI50 (SNB-78) was 2.29 µM (inactive), the GI50 (LXFL 529) was 0.912 µM (active) and the GI50 (RXF 631) was 1.32 µM (inactive). The GI50 (M19-MEL) was 1.29 µM (inactive).

With `Cc1ccc(S(=O)(=O)NC2CCCCO2)cc1` (centres undefined) the GI50 (DMS-114) was > 100 µM (inactive), the GI50 (KM-20L2) was > 100 µM (inactive) and the GI50 (HOP-18) was > 100 µM (inactive). The GI50 (SNB-78) was > 100 µM (inactive), the GI50 (XF498) was > 100 µM (inactive) and the GI50 (LXFL 529) was > 100 µM (inactive). The GI50 (M19-MEL) was > 100 µM (inactive).

With `CCC1(CN(C)C)CC/C(=C\c2ccc(OC)c(OC)c2)C1=O` (centres undefined) the GI50 (DMS-114) was 99.8 µM (inactive), the GI50 (KM-20L2) was 51.9 µM (inactive) and the GI50 (HOP-18) was > 100 µM (inactive). The GI50 (SNB-78) was > 100 µM (inactive), the GI50 (XF498) was > 100 µM (inactive) and the GI50 (LXFL 529) was > 92 µM (inactive). For the same compound, the GI50 (RXF 631) was > 100 µM (inactive) and the GI50 (M19-MEL) was > 100 µM (inactive).

For `O=C1NC(=O)C2C1N(Cc1ccccc1)C(=O)N2Cc1ccccc1` (centres undefined), the GI50 (DMS-114) was > 100 µM (inactive), the GI50 (KM-20L2) was > 100 µM (inactive) and the GI50 (SNB-78) was > 100 µM (inactive). The GI50 (XF498) was > 100 µM (inactive), the GI50 (LXFL 529) was > 100 µM (inactive) and the GI50 (RXF 631) was > 100 µM (inactive). For the same compound, the GI50 (M19-MEL) was > 100 µM (inactive).

With `O=C(NC1CCC[C@H]1OC(=O)c1ccccc1)c1ccccc1` (some centres undefined) the GI50 (DMS-114) was > 10 µM (inactive), the GI50 (KM-20L2) was > 10 µM (inactive) and the GI50 (SNB-78) was > 100 µM (inactive). For the same compound, the GI50 (XF498) was 35.3 µM (inactive), the GI50 (RXF 631) was 66.8 µM (inactive) and the GI50 (M19-MEL) was > 100 µM (inactive).

With `C=Cc1ccc(C)[n+](C[Si](C)(C)O[Si](C)(C)C[n+]2cc(C=C)ccc2C)c1` the GI50 (DMS-114) was > 100 µM (inactive), the GI50 (KM-20L2) was > 100 µM (inactive) and the GI50 (HOP-18) was > 100 µM (inactive). The GI50 (SNB-78) was > 100 µM (inactive), the GI50 (LXFL 529) was > 100 µM (inactive) and the GI50 (M19-MEL) was > 100 µM (inactive).

`COc1cc2c(c(OC)c1OC)-c1ccc(SC)c(=O)cc1[C@@H](NC(=O)c1ccc([N+](=O)[O-])cc1)CC2` was tested, and the GI50 (DMS-114) was < 0.0025 µM (active), the GI50 (KM-20L2) was < 0.0025 µM (active) and the GI50 (SNB-78) was < 0.0025 µM (active). For the same compound, the GI50 (XF498) was 0.00746 µM (active), the GI50 (RXF 631) was < 0.01 µM (active) and the GI50 (M19-MEL) was 0.0195 µM (active).

In the case of `Nc1ccccc1S(=O)(=O)N(CC(=O)O)c1ccccc1`, the GI50 (KM-20L2) is reported as > 100 µM (inactive), the GI50 (HOP-18) is reported as > 100 µM (inactive) and the GI50 (XF498) is reported as > 100 µM (inactive). For the same compound, the GI50 (LXFL 529) was > 100 µM (inactive), the GI50 (RXF 631) was > 100 µM (inactive) and the GI50 (M19-MEL) was > 100 µM (inactive).

For `Cc1ccc(C)c(NC(=O)c2cccc([N+](=O)[O-])c2O)c1`, the GI50 (DMS-114) was 15.1 µM (inactive), the GI50 (KM-20L2) was 24.6 µM (inactive) and the GI50 (HOP-18) was 5.7 µM (inactive). The GI50 (SNB-78) was 14.1 µM (inactive), the GI50 (XF498) was 23.2 µM (inactive) and the GI50 (LXFL 529) was 35.5 µM (inactive). For the same compound, the GI50 (M19-MEL) was 24.7 µM (inactive).

In the case of `C=C1C(=O)[C@]23C[C@H]1C[C@@H](O)[C@H]2[C@]1(COC3=O)[C@@H](OC(C)=O)CC[C@@](C)(COC(C)=O)[C@H]1C=O` [LOXOTHYRIN A], the GI50 (BT-549) is reported as 23.7 µM (inactive).
